Test results reported in paper PMC12040169 (PLOS Biology, 2025).

Experiment: in vitro
Settings: human, hela cells, % viability

## O=C(CSc1cccc2ccccc12)Nc1ccc([N+](=O)[O-])cc1O [CBK268696]
  viability at 28.5 h, 10 µM: 115%

## Cc1nn(C(C)C(=O)Nc2cc(C(F)(F)F)ccc2Cl)c(C)c1[N+](=O)[O-] (centres unmarked) [CBK268697]
  viability at 28.5 h, 10 µM: 88.5%

## O=C(CSc1nnc(-c2ccc(Cl)cc2Cl)o1)c1cc2ccccc2oc1=O [CBK268698]
  viability at 28.5 h, 10 µM: 88.7%

## O=C(O)c1ccccc1-c1ccc(-c2cc(C(=O)O)c3cc(Cl)ccc3n2)o1 [CBK268699]
  viability at 28.5 h, 10 µM: 91.1%

## Cc1cc(C(=O)Nc2cc(-c3nc4ncccc4o3)ccc2Cl)ccc1[N+](=O)[O-] [CBK268700]
  viability at 28.5 h, 10 µM: 95.1%

## Cc1cc(N2C(=O)CC(N3CCN(c4ccc(C(=O)c5cccs5)cc4)CC3)C2=O)no1 (centres unmarked) [CBK268701]
  viability at 28.5 h, 10 µM: 84.4%

## COC(=O)c1ccc(Cl)c(NC(=O)CSc2nnc(-c3ccncc3)[nH]2)c1 [CBK268702]
  viability at 28.5 h, 10 µM: 105%

## O=C(NCCCN1CCOCC1)c1ccc2nccnc2c1 [CBK268704]
  viability at 28.5 h, 10 µM: 114%

## O=C(Nc1cccc2ccccc12)C1CCC(C(=O)Nc2cccc3ccccc23)CC1 (centres unmarked) [CBK268706]
  viability at 28.5 h, 10 µM: 81.9%

## Cc1c(Nc2cnn(C34CC5CC(CC(CC(=O)O)(C5)C3)C4)c(=O)c2Cl)c(=O)n(-c2ccccc2)n1C [CBK268707]
  viability at 28.5 h, 10 µM: 89%

## O=C(CN(c1cc(Cl)ccc1Cl)S(=O)(=O)c1ccccc1)Nc1cccnc1 [CBK268708]
  viability at 28.5 h, 10 µM: 59.3%

## O=S(=O)(/N=C(/Nc1nccs1)c1ccccc1)c1cccs1 [CBK268709]
  viability at 28.5 h, 10 µM: 83.8%

## CSc1ncc(Cl)c(C(=O)Nc2sc3c(c2C(=O)NCc2cccnc2)CCC3)n1 [CBK268710]
  viability at 28.5 h, 10 µM: 95.9%

## Cc1cc(C)c(NC(=O)CSc2nc(C)c(Cc3ccccc3)c(O)n2)c([N+](=O)[O-])c1 [CBK268715]
  viability at 28.5 h, 10 µM: 86.8%

## NC(=O)c1ccccc1NC(=O)C1CCC(C(=O)Nc2ccccc2C(N)=O)CC1 (centres unmarked) [CBK268716]
  viability at 28.5 h, 10 µM: 87.1%

## Cc1ccccc1CNCCNCC(C)O (centres unmarked) [CBK268718C]
  viability at 28.5 h, 10 µM: 95.9%

## Cc1ccc(C(C)C)c(OCC(=O)NS(=O)(=O)c2ccc(Br)cc2)c1 [CBK268719]
  viability at 28.5 h, 10 µM: 101%

## CCOc1cc(C)c(C(C)C)cc1S(=O)(=O)NCCN1CCOCC1 [CBK268727]
  viability at 28.5 h, 10 µM: 110%

## O=C(O)CC(NC(=O)C(c1ccccc1)c1ccccc1)c1ccco1 (centres unmarked) [CBK268729]
  viability at 28.5 h, 10 µM: 109%

## Cc1cc(-c2nnc(SCC(=O)N3CCCCC3)o2)no1 [CBK268731]
  viability at 28.5 h, 10 µM: 86.6%

## CCOc1ccc2ccccc2c1CNCCc1ccc(S(N)(=O)=O)cc1 [CBK268732C]
  viability at 28.5 h, 10 µM: 88.7%

## O=C1CC(N2CCC(c3nc4ccccc4o3)CC2)C(=O)N1Cc1cccs1 (centres unmarked) [CBK268735]
  viability at 28.5 h, 10 µM: 104%

## COc1cc(OC)cc(-c2nnc(SCc3cccc(C(=O)O)c3)[nH]2)c1 [CBK268736]
  viability at 28.5 h, 10 µM: 108%

## O=C(Nc1ccc(NC(=O)c2ccco2)cc1)c1ccc(N2CCOCC2)c([N+](=O)[O-])c1 [CBK268739]
  viability at 28.5 h, 10 µM: 95.2%

## COc1c(Cl)cc(Cl)cc1C(=O)NC(=S)Nc1sc2c(c1C#N)CCCC2 [CBK268741]
  viability at 28.5 h, 10 µM: 84.4%

## OCC(CO)(CO)NCc1ccc(-c2ccccc2)cc1 [CBK268742C]
  viability at 28.5 h, 10 µM: 93.2%

## Cc1ccc(-n2c(SCC(=O)Nc3ccccc3C#N)nnc2-c2cc(Br)ccc2O)c(C)c1 [CBK268743]
  viability at 28.5 h, 10 µM: 94.1%

## N#C/C(=C/c1ccccc1OCc1cccc([N+](=O)[O-])c1)c1ccc(C(=O)O)cc1 [CBK268748]
  viability at 28.5 h, 10 µM: 96.2%

## Cn1c2ccccc2c2nnc(SCCCC(=O)c3ccc4c(c3)OCCO4)nc21 [CBK268750]
  viability at 28.5 h, 10 µM: 97.5%

## O=C(Cn1ncc2ccccc2c1=O)NNC(=S)Nc1ccc2c(c1)OCO2 [CBK268751]
  viability at 28.5 h, 10 µM: 100%

## O=C1CC(C(=O)Nc2ccccc2)NC(Nc2cc(Cl)cc(Cl)c2)=N1 (centres unmarked) [CBK268752]
  viability at 28.5 h, 10 µM: 106%

## CSc1nsc(SCC(=O)c2ccc(NC(C)=O)cc2)n1 [CBK268755]
  viability at 28.5 h, 10 µM: 82.3%

## O=C(NC(=S)Nc1cccc(-c2nc3ncccc3o2)c1)c1cc([N+](=O)[O-])ccc1N1CCOCC1 [CBK268756]
  viability at 28.5 h, 10 µM: 92.7%

## Cc1ccc(OC(C)C(=O)Nc2ccc(S(=O)(=O)Nc3cc(C)on3)cc2)cc1 (centres unmarked) [CBK268757]
  viability at 28.5 h, 10 µM: 89.6%

## CSc1nc(NN2C(=O)c3ccccc3C2=O)c2c3c(sc2n1)COC(C)(C)C3 [CBK268758]
  viability at 28.5 h, 10 µM: 85.6%

## CCCSc1nnc(NC(=O)c2nc(SC)ncc2Cl)s1 [CBK268759]
  viability at 28.5 h, 10 µM: 95.2%

## CC(C)(Oc1ccc(Cl)cc1)C(=O)O/N=C(\N)c1ccc(I)cc1 [CBK268760]
  viability at 28.5 h, 10 µM: 97.2%

## CS(=O)(=O)Nc1cccc(C2=NN(S(=O)(=O)c3ccc(Cl)cc3)C(c3ccccc3F)C2)c1 (centres unmarked) [CBK268762]
  viability at 28.5 h, 10 µM: 114%

## CCOc1cc(S(=O)(=O)NCCCN2CCOCC2)c(C)cc1C [CBK268764]
  viability at 28.5 h, 10 µM: 99%

## CSCCC(NS(=O)(=O)c1ccc(I)cc1)C(=O)O (centres unmarked) [CBK268768]
  viability at 28.5 h, 10 µM: 98.6%

## Cc1cc(C)cc(N(C(C)C(=O)Nc2ccccc2-c2ccccc2)S(C)(=O)=O)c1 (centres unmarked) [CBK268770]
  viability at 28.5 h, 10 µM: 101%

## COC(=O)c1ccc(COc2nc3ccccc3nc2/C=C/c2cccc([N+](=O)[O-])c2)cc1 [CBK268776]
  viability at 28.5 h, 10 µM: 112%

## COc1ccc(COc2nc3c(c(=O)n(C)c(=O)n3C)n2Cc2ccc(Cl)c(Cl)c2)cc1 [CBK268779]
  viability at 28.5 h, 10 µM: 91.3%

## COc1ccc(N2CC(C(=O)Nc3ccc(C(=O)O)cc3)CC2=O)cc1 (centres unmarked) [CBK268782]
  viability at 28.5 h, 10 µM: 88%

## CC(C)(C)C(=O)Nc1ccc(S(=O)(=O)NC2CCCCC2)cc1 [CBK268783]
  viability at 28.5 h, 10 µM: 118%

## Cc1ccc(NS(=O)(=O)c2cc(C(=O)Nc3ccc(S(=O)(=O)N4CCCC4)cc3)ccc2C)cc1 [CBK268784]
  viability at 28.5 h, 10 µM: 89.8%

## O=C(NC(=S)Nc1cccc(-c2nc3ccccc3s2)c1)c1cc([N+](=O)[O-])ccc1N1CCOCC1 [CBK268789]
  viability at 28.5 h, 10 µM: 103%

## Cc1onc(-c2ccccc2Cl)c1C(=O)N(Cc1nc(-c2ccccc2)no1)C1CCCCC1 [CBK268790]
  viability at 28.5 h, 10 µM: 108%

## Cc1ccc(-n2c(SCC(=O)N3CCc4ccccc43)nnc2-c2ccccc2O)c(C)c1 [CBK268793]
  viability at 28.5 h, 10 µM: 108%

## COc1ccccc1-c1noc(CCCC(=O)Nc2cccc(C(F)(F)F)c2)n1 [CBK268794]
  viability at 28.5 h, 10 µM: 96.3%

## COc1ccc(CCNC(=O)c2nc3ncccn3n2)cc1OC [CBK268795]
  viability at 28.5 h, 10 µM: 90.4%

## COC(=O)c1ccccc1NC(=O)C1CCCN(S(=O)(=O)c2cc(Cl)ccc2Cl)C1 (centres unmarked) [CBK268797]
  viability at 28.5 h, 10 µM: 101%

## OCCN1CCN(c2nc3ccccc3nc2-c2ccccc2)CC1 [CBK268799C]
  viability at 28.5 h, 10 µM: 111%

## O=C(CN1CCCC1)Nc1sc2c(c1C(=O)Nc1ccccc1)CCCC2 [CBK268800]
  viability at 28.5 h, 10 µM: 103%

## CC(=O)Nc1ccc(S(=O)(=O)N2CCN(c3ccc([N+](=O)[O-])c(NC4C5CC6CC(C5)CC4C6)c3)CC2)cc1 (centres unmarked) [CBK268802]
  viability at 28.5 h, 10 µM: 90.5%

## CCN(CC)CCn1c(=N)n(Cc2ccc(C(C)(C)C)cc2)c2ccccc21 [CBK268803B]
  viability at 28.5 h, 10 µM: 82.9%

## CN(C)c1nc(NCc2ccccc2)nc(SCC(=O)Nc2ccccc2)n1 [CBK268810]
  viability at 28.5 h, 10 µM: 88.9%

## O=C(COc1ccccc1[N+](=O)[O-])Nc1ccc(Cl)c(-c2nc3ncccc3o2)c1 [CBK268811]
  viability at 28.5 h, 10 µM: 88.8%

## Cc1nc(SCCC(=O)Nc2ccccc2C#N)nc2cc3c(cc12)CCC3 [CBK268812]
  viability at 28.5 h, 10 µM: 90.2%

## NS(=O)(=O)c1ccc(NC(=S)NC(=O)c2cccc3c(Cl)cccc23)cc1 [CBK268814]
  viability at 28.5 h, 10 µM: 99.5%

## O=C(O)CCNS(=O)(=O)c1ccc(Cl)c(Cl)c1 [CBK268815]
  viability at 28.5 h, 10 µM: 112%

## Cc1cccc(-c2noc(CN(C(=O)c3ccc4c(c3)OCO4)C(C)C)n2)c1 [CBK268817]
  viability at 28.5 h, 10 µM: 98.1%

## O=C(O)CCN1CCN(S(=O)(=O)c2cccc([N+](=O)[O-])c2)CC1 [CBK268819]
  viability at 28.5 h, 10 µM: 89.7%

## O=C(CSc1nnc(CN2CCOCC2)n1-c1ccc(Cl)cc1)N1c2ccccc2SC2C=CC=CC21 (centres unmarked) [CBK268820]
  viability at 28.5 h, 10 µM: 91.3%

## CCCSc1ncc(Cl)c(C(=O)Nc2ccc(C(=O)OC)cc2)n1 [CBK268824]
  viability at 28.5 h, 10 µM: 102%

## CS(=O)(=O)N(CC(=O)Nc1ccccc1C(=O)N1CCCC1)c1cc(Cl)c(Cl)cc1Cl [CBK268826]
  viability at 28.5 h, 10 µM: 106%

## CCN(CC(=O)N1CCN(c2cc(Cl)ccc2C)CC1)S(=O)(=O)c1ccc2ccccc2c1 [CBK268827]
  viability at 28.5 h, 10 µM: 92.8%

## Cc1c(NC(=O)CSc2ccc(Cl)cc2)cccc1-c1nc2ncccc2o1 [CBK268829]
  viability at 28.5 h, 10 µM: 109%

## Cc1cc(O)c(-c2n[nH]c3c2C(c2ccccc2F)N(Cc2cccnc2)C3=O)cc1C (centres unmarked) [CBK268831]
  viability at 28.5 h, 10 µM: 89.8%

## CSc1nsc(SCC(=O)c2cc3ccccc3oc2=O)n1 [CBK268833]
  viability at 28.5 h, 10 µM: 105%

## Cc1cc(C)cc(N(C(C)C(=O)Nc2ccc(C(F)(F)F)cc2)S(C)(=O)=O)c1 (centres unmarked) [CBK268834]
  viability at 28.5 h, 10 µM: 89.6%

## O=C(CN1CCN(c2ccccn2)CC1)N1c2ccccc2Sc2ccc(C(F)(F)F)cc21 [CBK268835G]
  viability at 28.5 h, 10 µM: 98.8%

## O=C(CSc1nnc(-c2ccc(Cl)cc2Cl)o1)c1ccc2c(c1)OCCO2 [CBK268839]
  viability at 28.5 h, 10 µM: 113%

## O=S(=O)(N1CCOCC1)N1CCN(CC(O)COc2ccc3cc(Br)ccc3c2)CC1 (centres unmarked) [CBK268840]
  viability at 28.5 h, 10 µM: 103%

## O=C(O)CC(NC(=O)c1ccccc1)c1ccco1 (centres unmarked) [CBK268843]
  viability at 28.5 h, 10 µM: 87.4%

## Cc1nnc2sc(-c3ccccc3NC(=S)NC(=O)c3cc4ccccc4o3)nn12 [CBK268845]
  viability at 28.5 h, 10 µM: 103%

## COc1ccc(C2c3c(-c4cc(C)c(C)cc4O)n[nH]c3C(=O)N2Cc2cccnc2)cc1OC (centres unmarked) [CBK268846]
  viability at 28.5 h, 10 µM: 106%

## COc1ccccc1-c1noc(CCCC(=O)Nc2cccnc2)n1 [CBK268848]
  viability at 28.5 h, 10 µM: 101%

## C=CCn1c(S)nnc1CCSCc1ccccc1 [CBK268849]
  viability at 28.5 h, 10 µM: 95.1%

## CC(O)c1cc2c(cc1NC(=O)c1cnn3c1NC(c1ccco1)CC3C(F)(F)F)OCO2 (centres unmarked) [CBK268850]
  viability at 28.5 h, 10 µM: 83.3%

## O=C(O)CCc1ccc(-c2ccc(F)cc2)n1NC(=O)c1ccco1 [CBK268853]
  viability at 28.5 h, 10 µM: 90.7%

## CS(=O)(=O)N1CCN(c2ccccc2NC(=O)COc2ccc(Cl)cc2)CC1 [CBK268854]
  viability at 28.5 h, 10 µM: 94.7%

## NCCCN(Cc1ccco1)C1CCCC1 [CBK268856]
  viability at 28.5 h, 10 µM: 109%
